melting point [°C] | SMILES
76 to 78 | CN(C)S(=O)(=O)NCC1COc2ccccc2O1 (racemic) [Compound #6, N-(2,3-Dihydro-benzo[1,4]dioxin-2-ylmethyl)-N′,N′dimethylsulfamide]
119 to 121 | NS(=O)(=O)NC[C@H]1COc2cc(Cl)c(Cl)cc2O1 [Compound #29, (2S)-(−)-N-(6,7Dichloro-2,3-dihydro-benzo[1,4]dioxin-2-ylmethyl)-sulfamide]
100 to 101 | NS(=O)(=O)NCC1CCc2ccccc2O1 (stereo not shown) [Compound #10, Chroman-2-ylmethylsulfamide]
101 to 103 | NS(=O)(=O)NCCC1COc2ccccc2O1 (stereo not shown) [Compound #16, 2-(2,3-Dihydro-benzo[1,4]dioxin-2-yl)-ethylsulfamide]
